Results: PubChem BioAssay AID330 (DTP/NCI, 2004)
Where “and” joins values, the source holds several entries; their conditions need not be identical. Identical values can stand only once. Inconclusive results and toxic doses are left out. How the source made its calls: active means survival T/C of 150% or more; inactive means T/C below 125% in these data.

Test system: P388 leukemia ip, CD2F1 mice, survival T/C
Experiment: NCI In Vivo Anticancer Drug Screen. Data for tumor model P388 Leukemia (intraperitoneal) in CD2F1 (CDF1) mice
Conditions: endpoint: median survival time, higher = longer survival
How it was run: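 Mice carrying the transplanted tumor received test compound or vehicle. Survival was recorded in each group, and the value is the treated-group measurement divided by that of the vehicle-treated control group.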

[1] = dose: 100.0 mg/kg/injection, schedule: Q01DX009 (ip), vehicle: saline
[2] = dose: 60.0 mg/kg/injection, schedule: Q01DX005 (ip), vehicle: saline with Tween-80
[3] = dose: 120.0 mg/kg/injection, schedule: Q01DX005 (ip), vehicle: saline with Tween-80
[4] = dose: 240.0 mg/kg/injection, schedule: Q01DX005 (ip), vehicle: saline with Tween-80
[5] = dose: 50.0 mg/kg/injection, schedule: Q01DX005 (ip), vehicle: saline with Tween-80
[6] = dose: 100.0 mg/kg/injection, schedule: Q01DX005 (ip), vehicle: saline with Tween-80
[7] = dose: 200.0 mg/kg/injection, schedule: Q01DX005 (ip), vehicle: saline with Tween-80
[8] = dose: 15.0 mg/kg/injection, schedule: Q01DX005 (ip), vehicle: saline with Tween-80
[9] = dose: 50.0 mg/kg/injection, schedule: Q01DX009 (ip), vehicle: saline with Tween-80
[10] = dose: 100.0 mg/kg/injection, schedule: Q01DX009 (ip), vehicle: saline with Tween-80
[11] = dose: 200.0 mg/kg/injection, schedule: Q01DX009 (ip), vehicle: saline with Tween-80

Measured: T/C

O=C(O)CC(/C=C\C(=O)C(=O)O)=C\O
inactive: dose: 1.56 mg/kg/injection, schedule: Q01DX009 (ip), vehicle: saline 100 % of control | dose: 3.12 mg/kg/injection, schedule: Q01DX009 (ip), vehicle: saline 101 % of control | dose: 6.25 mg/kg/injection, schedule: Q01DX009 (ip), vehicle: saline 100 % of control | dose: 12.5 mg/kg/injection, schedule: Q01DX009 (ip), vehicle: saline 100 % of control and 114 % of control | dose: 25.0 mg/kg/injection, schedule: Q01DX009 (ip), vehicle: saline 100 % of control and 109 % of control | dose: 50.0 mg/kg/injection, schedule: Q01DX009 (ip), vehicle: saline 106 % of control | [1] 112 % of control | dose: 200.0 mg/kg/injection, schedule: Q01DX009 (ip), vehicle: saline 86 % of control

COc1cccc2c1C(=O)c1c(O)c3c(c(O)c1C2=O)CC(O)(C1(C)OCCO1)CC3O (stereo unspecified)
inactive: dose: 3.13 mg/kg/injection, schedule: Q04DX003 (ip), vehicle: distilled water + Tween-80 99 % of control | dose: 6.25 mg/kg/injection, schedule: Q04DX003 (ip), vehicle: distilled water + Tween-80 99 % of control | dose: 12.5 mg/kg/injection, schedule: Q04DX003 (ip), vehicle: distilled water + Tween-80 99 % of control | dose: 25.0 mg/kg/injection, schedule: Q04DX003 (ip), vehicle: distilled water + Tween-80 96 % of control | dose: 50.0 mg/kg/injection, schedule: Q04DX003 (ip), vehicle: distilled water + Tween-80 98 % of control | dose: 100.0 mg/kg/injection, schedule: Q04DX003 (ip), vehicle: distilled water + Tween-80 98 % of control | dose: 200.0 mg/kg/injection, schedule: Q04DX003 (ip), vehicle: distilled water + Tween-80 106 % of control | dose: 400.0 mg/kg/injection, schedule: Q04DX003 (ip), vehicle: distilled water + Tween-80 106 % of control

COC(SC)c1cc(-c2c(Cl)cccc2Cl)no1 (stereo unspecified)
inactive: [2] 93 % of control | [3] 103 % of control | [4] 107 % of control

CN(C)c1ccc(N)c(N)c1
inactive: dose: 3.12 mg/kg/injection, schedule: Q01DX005 (ip), vehicle: saline 99 % of control | dose: 6.25 mg/kg/injection, schedule: Q01DX005 (ip), vehicle: saline 99 % of control | dose: 12.5 mg/kg/injection, schedule: Q01DX005 (ip), vehicle: saline 103 % of control | dose: 25.0 mg/kg/injection, schedule: Q01DX005 (ip), vehicle: saline 105 % of control and 106 % of control | [1] 98 % of control

C=CCNC(=S)N/N=C(C)/C=C/c1ccc(OC)cc1
inactive: dose: 50.0 mg/kg/injection, schedule: Q01DX005 (ip), vehicle: Klucel (hydroxypropylcellulose) (HPC) 100 % of control | dose: 100.0 mg/kg/injection, schedule: Q01DX005 (ip), vehicle: Klucel (hydroxypropylcellulose) (HPC) 96 % of control | dose: 200.0 mg/kg/injection, schedule: Q01DX005 (ip), vehicle: Klucel (hydroxypropylcellulose) (HPC) 88 % of control

CCN(CC)C(=O)N1C=CC(c2ccccc2)C(C(C)=O)=C1 (stereo unspecified)
inactive: [2] 91 % of control | [3] 103 % of control | [4] 101 % of control

Cc1cc2c(=O)c3ccccc3oc2c(C#N)c1C
inactive: dose: 60.0 mg/kg/injection, schedule: Q01DX005 (ip), vehicle: saline 97 % of control | dose: 120.0 mg/kg/injection, schedule: Q01DX005 (ip), vehicle: saline 91 % of control | dose: 240.0 mg/kg/injection, schedule: Q01DX005 (ip), vehicle: saline 89 % of control

COc1cc(O)c(C(C)=O)c2c1C=CC(C)(C)O2
inactive: [5] 102 % of control | [6] 105 % of control | [7] 100 % of control

COc1cc(O)c(/C=N/NC(=S)NC23CC4CC(CC(C4)C2)C3)c(OC)c1
inactive: dose: 7.5 mg/kg/injection, schedule: Q01DX005 (ip), vehicle: saline with Tween-80 105 % of control | [8] 101 % of control and 103 % of control | [2] 93 % of control

O=C(Nc1ncn[nH]1)C(=O)Nc1ncn[nH]1
inactive: dose: 6.25 mg/kg/injection, schedule: Q01DX009 (ip), vehicle: saline with Tween-80 92 % of control | dose: 12.5 mg/kg/injection, schedule: Q01DX009 (ip), vehicle: saline with Tween-80 94 % of control | dose: 25.0 mg/kg/injection, schedule: Q01DX009 (ip), vehicle: saline with Tween-80 95 % of control

CCC/C(=N\NC(=S)N1CC2CCC(CC2)C1)c1ccccn1
inactive: dose: 6.25 mg/kg/injection, schedule: Q01DX005 (ip), vehicle: saline with Tween-80 104 % of control and 110 % of control | dose: 12.5 mg/kg/injection, schedule: Q01DX005 (ip), vehicle: saline with Tween-80 113 % of control and 116 % of control | dose: 25.0 mg/kg/injection, schedule: Q01DX005 (ip), vehicle: saline with Tween-80 120 % of control

O=C(c1ccccc1)C(SSN1CCOCC1)C(=O)c1ccccc1
inactive: [9] 91 % of control | [10] 100 % of control | [11] 106 % of control

O=C(NCCN1CCC(n2c(=O)[nH]c3cc(Cl)ccc32)CC1)c1ccc(F)cc1
inactive: [5] 95 % of control | [6] 88 % of control | [7] 90 % of control

C[n+]1c(/C=N/NC(N)=S)ccc2ccccc21
inactive: [10] 118 % of control

O=[N+]([O-])c1ccc(SN2CCCCC2)c([N+](=O)[O-])c1
inactive: [5] 100 % of control | [6] 100 % of control | [7] 105 % of control

Nc1ccc(CCCCc2ccc(S(=O)(=O)F)cc2Cl)c(Cl)c1
inactive: [8] 101 % of control | dose: 30.0 mg/kg/injection, schedule: Q01DX005 (ip), vehicle: saline with Tween-80 118 % of control | [9] 91 % of control | [2] 93 % of control | [10] 99 % of control | [3] 87 % of control | [11] 98 % of control | [4] 92 % of control

CN(C)P1P(N(C)C)P(N(C)C)P1N(C)C (stereo unspecified)
inactive: [2] 97 % of control | [3] 97 % of control | [4] 95 % of control
